Tests used:
[1] = test system: RAS-mutant NSCLC cell lines; test: Induction of apoptosis (caspase 3/7 activation) in panel of RAS-mutant NSCLC cell lines; type: cell-based; settings: for Response Rate (sensitivity/total lines tested), Cell Apoptosis (capsase 3/7): Ras mut NSCLC cell lines, caspase 3/7 activation, 24 hours of treatment
Procedure: (§1) A panel of 24 non-small cell lung carcinoma (NSCLC) cell lines harboring RAS mutations was analyzed for genomic alterations, gene expression profiling and protein phosphorylation in MAPK and PI3K pathways. Inhibition of cell growth and induction of apoptosis were determined by CellTiter-Glo® and caspase 3/7 activation assays after 72 and 24 hours of treatment, respectively.

[2] = test system: RAS-mutant NSCLC cell lines; test: Inhibition of cell growth (CellTiter-Glo) in panel of RAS-mutant NSCLC cell lines; settings: for Response Rate (sensitivity/total lines tested), Cell growth inhibition: Ras mut NSCLC cell lines, CellTiter-Glo, 72 hours of treatment; for Single agent activity (in words): agent alone, cell growth inhibition and apoptosis
Procedure: Cells are plated in 384-well plates at 500 cells/well in culture media appropriate for each cell type, supplemented with 10% FBS and 1% penicillin/streptomycin, and incubated overnight at 37° C., 5% CO2. Cells are treated in a grid manner with dilution of Compound A^2 (20 dilutions, including no compound, of 2-fold dilutions starting from 1-20 μM depending of compound) from left to right on 384-well plate and also treated with Compound B^2 (20 dilutions, including no compound, of 2-fold dilutions starting from 1-20 μM depending of compound) from top to bottom on 384-well plate and incubated as above for a further 72 hours. In some instances compounds are added in a staggered manner and incubation time can be extended up to 7 days. Cell growth is measured using CellTiter-Glo® reagent according to the manufacturer's protocol and signals are read on a PerkinElmer EnVision™ reader set for luminescence mode with a 0.5-second read.
Results are expressed as a percentage of the t=0 value and plotted against compound(s) concentration. The t=0 value is normalized to 100% and represents the number of cells present at the time of compound addition. The cellular response is determined for each compound and/or compound combination using a 4- or 6-parameter curve fit of cell viability against concentration using the IDBS XLfit plug-in for Microsoft Excel software and determining the concentration required for 50% inhibition of cell growth (gIC50). Background correction is made by subtraction of values from wells containing no cells.
as §1

Compound: Cc1nc(Nc2ncc(C(=O)Nc3c(C)cccc3Cl)s2)cc(N2CCN(CCO)CC2)n1 [Dasatinib]
- Response Rate (sensitivity/total lines tested), Cell Apoptosis (capsase 3/7) [1]: 0% (0/10)
- Response Rate (sensitivity/total lines tested), Cell growth inhibition [2]: 20% (2/10)

Compound: Nc1nc2[nH]cc(CCc3ccc(C(=O)N[C@@H](CCC(=O)O)C(=O)O)cc3)c2c(=O)[nH]1 [Pemtrexed]
- Response Rate (sensitivity/total lines tested), Cell growth inhibition [2]: 38% (4/9)

Compound: Cn1ncc(Cl)c1-c1cc(C(=O)N[C@H](CN)Cc2cccc(F)c2)sc1Cl [AKT inhibitor, N-{(1S)-2-amino-1-[(3-fluorophenyl)methyl]ethyl}-5-chloro-4-(4-chloro-1-methyl-1H-pyrazol-5-yl)-2-thiophenecarboxamide]
- Response Rate (sensitivity/total lines tested), Cell Apoptosis (capsase 3/7) [1]: 0% (0/9)
- Single agent activity (in words) ([2]; RAS-mutant NSCLC lines): little or no activity
- Response Rate (sensitivity/total lines tested), Cell growth inhibition [2]: 6% (1/18)

Compound: C#Cc1cccc(Nc2ncnc3cc(OCCOC)c(OCCOC)cc23)c1 [Erlotinib]
- Response Rate (sensitivity/total lines tested), Cell Apoptosis (capsase 3/7) [1]: 0% (0/24)
- Single agent activity (in words) ([2]; RAS-mutant NSCLC lines): little or no activity
- Response Rate (sensitivity/total lines tested), Cell growth inhibition [2]: 0% (0/24)

Compound: COc1ncc(-c2ccc3nccc(-c4ccnnc4)c3c2)cc1NS(=O)(=O)c1ccc(F)cc1F [PI3k/mTOR inhibitor, 2,4-difluoro-N-{2-(methyloxy)-5-[4-(4-pyridazinyl)-6-quinolinyl]-3-pyridinyl}benzenesulfonamide]
- Apoptosis (in words) ([1]; RAS-mutant NSCLC lines, single agent): little apoptosis
- Response Rate (sensitivity/total lines tested), Cell Apoptosis (capsase 3/7) [1]: 6% (1/16)
- Cell growth inhibition (in words) ([2]; RAS-mutant NSCLC lines): potently inhibited cell growth
- Response Rate (sensitivity/total lines tested), Cell growth inhibition [2]: 69% (9/13)

Compound: dihydroxy-12-[(2R)-1-[(1S,3R,4R)-4-(2-hydroxyethoxy)-3-methoxycyclohexyl]propan-2-yl]-19,30-dimethoxy-15,17,21,23,29,35-hexamethyl-11,36-dioxa-4-azatricyclo[30.3.1.0^4.9]hexatriaconta-16,24,26,28-tetraene-2,3,10,14,20-pentone [Everolimus]
- Response Rate (sensitivity/total lines tested), Cell Apoptosis (capsase 3/7) [1]: 0% (0/24)
- Single agent activity (in words) ([2]; RAS-mutant NSCLC lines): little or no activity
- Response Rate (sensitivity/total lines tested), Cell growth inhibition [2]: 8% (2/24)

Source: patent US20130231346A1, “METHODS OF TREATING CANCER” (GLAXOSMITHKLINE INTELLECTUAL PROPERTY (NO.2) LIMITED, priority 2010, published 2013)
